Values quoted from earlier work in patent US7374751B1, “QS-21 and IL-12 as an adjuvant combination” (Wyeth Holdings Corporation, priority 2001, dated 2008).

Settings: clinical data, F/QS-21 formulation, immediately after injection

QS-21
local acute toxicity: associated with local acute toxicity immediately after injection
